This test deals with human CXCR3A (Homo sapiens (Human), UniProt P49682). In words: FLIPR assay (inhibition of CXCL10-induced calcium signal). The class given is cell-based. Particulars: engineered CHO-K1 cells expressing human CXCR3A coupled to Galpha(16); Fluo-4-AM; CXCL10 agonist 20 nM; mean values where determined several times. On the procedure: The bioactivity of compounds is tested in a fluorometric imaging plate reader (FLIPR: Molecular Devices) using engineered CHO-K1 cells expressing the human CXCR3A (GenBank: AY242128) coupled to a G protein (Galpha(16)). Cells are plated the day prior to bioassay in F12 medium supplemented with 10% FBS and G418 and hygromycin antibiotics to maintain recombinant selection. At the day of bioassay, cells are washed and dye loaded for one hour with Fluo-4-AM (Invitrogen) in Hanks Balanced Salt Solution (Invitrogen), buffered with 20 mM Hepes at pH 7.4 and sodium bicarbonate (0.038%), containing 5 mM probenecid. This buffer, but lacking the dye and containing probenecid at a concentration of 2.5 mM, is also used for washing steps (wash buffer); or lacking both dye and probenecid but supplemented with 0.1% BSA for compound dilution steps (dilution buffer). Cells are washed free of excess dye and 60 microliter of wash buffer is added. Stock solutions of test compounds are made up at a concentration of 10 mM in DMSO, and serially diluted in dilution buffer to concentrations required for inhibition dose response curves. After a 10 minute incubation period at 37° C., 10 microliters of each compound dilution are transferred from a compound plate to the plate containing the recombinant cells in the FLIPR instrument according to the manufacturer's instructions. Following basal readings, 10 microliter CXCL10 agonist at a concentration of 20 nM (from Peprotech) is added, again using the FLIPR instrument. Changes in fluorescence are monitored before and after addition of the test compounds. Emission peak values above base level after CXCL10 addition are exported after base line subtraction.
human CXCR3A, sequence (P49682 whole entry): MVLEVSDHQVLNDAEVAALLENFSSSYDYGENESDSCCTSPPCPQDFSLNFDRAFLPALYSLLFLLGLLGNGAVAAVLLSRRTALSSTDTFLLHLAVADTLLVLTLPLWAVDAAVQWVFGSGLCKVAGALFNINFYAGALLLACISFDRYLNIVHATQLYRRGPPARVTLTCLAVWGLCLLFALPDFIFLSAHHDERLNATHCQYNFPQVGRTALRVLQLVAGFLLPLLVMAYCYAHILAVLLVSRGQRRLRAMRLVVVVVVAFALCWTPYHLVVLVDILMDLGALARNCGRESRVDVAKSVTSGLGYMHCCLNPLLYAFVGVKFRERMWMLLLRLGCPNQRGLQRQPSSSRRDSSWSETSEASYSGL
The calculated IC50 values may fluctuate depending on the daily assay performance. Fluctuations of this kind are known to those skilled in the art. In the case where IC50 values have been determined several times for the same compound, mean values are given.
Turning to `CCOc1ncc(N2CCc3c(C(F)(F)F)ccc(N4CCN(C(=O)Cn5nc(C)cc5C)CC4)c3C2)cn1` [Example 29, 2-(3,5-Dimethyl-pyrazol-1-yl)-1-{4-[2-(2-ethoxy-pyrimidin-5-yl)-5-trifluoromethyl-1,2,3,4-tetrahydro-isoquinolin-8-yl]-piperazin-1-yl}-ethanone], the IC50 came to 30.5 nM.

With `CCOc1ncc(N2CCc3c(C(F)(F)F)ccc(N4CCN(C(=O)Cn5nc(C)nc5C)CC4)c3C2)cn1` [Example 30, 2-(3,5-Dimethyl-[1,2,4]triazol-1-yl)-1-{4-[2-(2-ethoxy-pyrimidin-5-yl)-5-trifluoromethyl-1,2,3,4-tetrahydro-isoquinolin-8-yl]-piperazin-1-yl}-ethanone], the IC50 stood at 13.8 nM.

As for `CCOc1ncc(N2CCc3c(C(F)(F)F)ccc(N4CCN(C(=O)Cn5ncc6cccnc65)CC4)c3C2)cn1` [Example 31, 1-{4-[2-(2-Ethoxy-pyrimidin-5-yl)-5-trifluoromethyl-1,2,3,4-tetrahydro-isoquinolin-8-yl]-piperazin-1-yl}-2-pyrazolo[3,4-b]pyridin-1-yl-ethanone], the IC50 is 11.5 nM.

`CCOc1ncc(N2CCc3c(C(F)(F)F)ccc(N4CCN(C(=O)Cn5cc6cccnc6n5)CC4)c3C2)cn1` [Example 32, 1-{4-[2-(2-Ethoxy-pyrimidin-5-yl)-5-trifluoromethyl-1,2,3,4-tetrahydro-isoquinolin-8-yl]-piperazin-1-yl}-2-pyrazolo[3,4-b]pyridin-2-yl-ethanone]: the IC50 was found to be 9.83 nM.

For the compound `CCOc1ncc(N2CCc3c(C(F)(F)F)ccc(N4CCN(C(=O)CN5C(=O)Cc6ccccc65)CC4)c3C2)cn1` [Example 33, 1-(2-{4-[2-(2-Ethoxy-pyrimidin-5-yl)-5-trifluoromethyl-1,2,3,4-tetrahydro-isoquinolin-8-yl]-piperazin-1-yl}-2-oxo-ethyl)-1,3-dihydro-indol-2-one], the IC50 turned out to be 10.9 nM.

As for `CCOc1ncc(N2CCc3c(C(F)(F)F)ccc(N4CCN(C(=O)Cn5cnc6cccnc65)[C@@H](C)C4)c3C2)cn1` [Example 34, 1-{(S)-4-[2-(2-Ethoxy-pyrimidin-5-yl)-5-trifluoromethyl-1,2,3,4-tetrahydro-isoquinolin-8-yl]-2-methyl-piperazin-1-yl}-2-imidazo[4,5-b]pyridin-3-yl-ethanone], the IC50 worked out at 16.7 nM.

For the compound `CCOc1ncc(N2CCc3c(C(F)(F)F)ccc(N4CCN(C(=O)Cn5nc(C)cc5C)[C@@H](C)C4)c3C2)cn1` [Example 35, 2-(3,5-Dimethyl-pyrazol-1-yl)-1-{(S)-4-[2-(2-ethoxy-pyrimidin-5-yl)-5-trifluoromethyl-1,2,3,4-tetrahydro-isoquinolin-8-yl]-2-methyl-piperazin-1-yl}-ethanone], the IC50 worked out at 30.8 nM.

Take `CCOc1ncc(N2CCc3c(C(F)(F)F)ccc(N4CCN(C(=O)Cn5ccc(C)n5)[C@@H](C)C4)c3C2)cn1` [Example 36, 1-{(S)-4-[2-(2-Ethoxy-pyrimidin-5-yl)-5-trifluoromethyl-1,2,3,4-tetrahydro-isoquinolin-8-yl]-2-methyl-piperazin-1-yl}-2-(3-methyl-pyrazol-1-yl)-ethanone]: the IC50 was 6.27 nM.

Turning to `CCOc1ncc(N2CCc3c(C(F)(F)F)ccc(N4CCN(C(=O)CN5CCc6cccnc65)[C@@H](C)C4)c3C2)cn1` [Example 37, 2-(2,3-Dihydro-pyrrolo[2,3-b]pyridin-1-yl)-1-{(S)-4-[2-(2-ethoxy-pyrimidin-5-yl)-5-trifluoromethyl-1,2,3,4-tetrahydro-isoquinolin-8-yl]-2-methyl-piperazin-1-yl}-ethanone], the IC50 is 30.9 nM.

Regarding `Cc1nc(C)n(CC(=O)N2CCN(c3ccc(C(F)(F)F)c4c3CN(c3nc5ccc(F)cc5s3)CC4)C[C@H]2C)n1` [Example 38, 2-(3,5-Dimethyl-[1,2,4]triazol-1-yl)-1-{(R)-4-[2-(6-fluoro-benzothiazol-2-yl)-5-trifluoromethyl-1,2,3,4-tetrahydro-isoquinolin-8-yl]-2-methyl-piperazin-1-yl}-ethanone], the IC50 was 15.8 nM.

Regarding `C[C@@H]1CN(c2ccc(C(F)(F)F)c3c2CN(c2nc4ccc(F)cc4s2)CC3)CCN1C(=O)Cn1ncc2cccnc21` [Example 39, 1-{(R)-4-[2-(6-Fluoro-benzothiazol-2-yl)-5-trifluoromethyl-1,2,3,4-tetrahydro-isoquinolin-8-yl]-2-methyl-piperazin-1-yl}-2-pyrazolo[3,4-b]pyridin-1-yl-ethanone], the IC50 was 73.5 nM.

Take `Cc1ccn(CC(=O)N2CCN(c3ccc(C(F)(F)F)c4c3CN(c3nc5ccc(F)cc5s3)CC4)C[C@H]2C)n1` [Example 40, 1-{(R)-4-[2-(6-Fluoro-benzothiazol-2-yl)-5-trifluoromethyl-1,2,3,4-tetrahydro-isoquinolin-8-yl]-2-methyl-piperazin-1-yl}-2-(3-methyl-pyrazol-1-yl)-ethanone]: the IC50 was determined as 49 nM.

`Cc1ccnn1CC(=O)N1CCN(c2ccc(C(F)(F)F)c3c2CN(c2nc4ccc(F)cc4s2)CC3)C[C@H]1C` [Example 41, 1-{(R)-4-[2-(6-Fluoro-benzothiazol-2-yl)-5-trifluoromethyl-1,2,3,4-tetrahydro-isoquinolin-8-yl]-2-methyl-piperazin-1-yl}-2-(5-methyl-pyrazol-1-yl)-ethanone]: the IC50 was 51.4 nM.

In the case of `Cc1nc(C)n(CC(=O)N2CCN(c3ccc(C(F)(F)F)c4c3CN(c3nc(C(F)(F)F)cs3)CC4)C[C@H]2C)n1` [Example 42, 2-(3,5-Dimethyl-[1,2,4]triazol-1-yl)-1-{(R)-2-methyl-4-[5-trifluoromethyl-2-(4-trifluoromethyl-thiazol-2-yl)-1,2,3,4-tetrahydro-isoquinolin-8-yl]-piperazin-1-yl}-ethanone], the IC50 was 8.29 nM.

Consider `C[C@@H]1CN(c2ccc(C(F)(F)F)c3c2CN(c2nc(C(F)(F)F)cs2)CC3)CCN1C(=O)Cn1ncc2cccnc21` [Example 43, 1-{(R)-2-Methyl-4-[5-trifluoromethyl-2-(4-trifluoromethyl-thiazol-2-yl)-1,2,3,4-tetrahydro-isoquinolin-8-yl]-piperazin-1-yl}-2-pyrazolo[3,4-b]pyridin-1-yl-ethanone], for which the IC50 came to 38.6 nM.

Turning to `Cc1ccn(CC(=O)N2CCN(c3ccc(C(F)(F)F)c4c3CN(c3nc(C(F)(F)F)cs3)CC4)C[C@H]2C)n1` [Example 44, 2-(3-Methyl-pyrazol-1-yl)-1-{(R)-2-methyl-4-[5-trifluoromethyl-2-(4-trifluoromethyl-thiazol-2-yl)-1,2,3,4-tetrahydro-isoquinolin-8-yl]-piperazin-1-yl}-ethanone], the half-inhibitory concentration (IC50) stood at 12 nM.

In the case of `Cc1ccnn1CC(=O)N1CCN(c2ccc(C(F)(F)F)c3c2CN(c2nc(C(F)(F)F)cs2)CC3)C[C@H]1C` [Example 45, 2-(5-Methyl-pyrazol-1-yl)-1-{(R)-2-methyl-4-[5-trifluoromethyl-2-(4-trifluoromethyl-thiazol-2-yl)-1,2,3,4-tetrahydro-isoquinolin-8-yl]-piperazin-1-yl}-ethanone], the IC50 is 12.7 nM.

Take `Cc1nc(C)n(CC(=O)N2CCN(c3ccc(C(F)(F)F)c4c3CN(c3cnc(C5CC5)nc3)CC4)C[C@H]2C)n1` [Example 46, 1-{(R)-4-[2-(2-Cyclopropyl-pyrimidin-5-yl)-5-trifluoromethyl-1,2,3,4-tetrahydro-isoquinolin-8-yl]-2-methyl-piperazin-1-yl}-2-(3,5-dimethyl-[1,2,4]triazol-1-yl)-ethanone]: the IC50 is 4.37 nM.

In the case of `C[C@@H]1CN(c2ccc(C(F)(F)F)c3c2CN(c2cnc(C4CC4)nc2)CC3)CCN1C(=O)Cn1ncc2cccnc21` [Example 47, 1-{(R)-4-[2-(2-Cyclopropyl-pyrimidin-5-yl)-5-trifluoromethyl-1,2,3,4-tetrahydro-isoquinolin-8-yl]-2-methyl-piperazin-1-yl}-2-pyrazolo[3,4-b]pyridin-1-yl-ethanone], the IC50 was 7.27 nM.

Regarding `Cc1ccn(CC(=O)N2CCN(c3ccc(C(F)(F)F)c4c3CN(c3cnc(C5CC5)nc3)CC4)C[C@H]2C)n1` [Example 48, 1-{(R)-4-[2-(2-Cyclopropyl-pyrimidin-5-yl)-5-trifluoromethyl-1,2,3,4-tetrahydro-isoquinolin-8-yl]-2-methyl-piperazin-1-yl}-2-(3-methyl-pyrazol-1-yl)-ethanone], the IC50 was found to be 1.4 nM.

As for `Cc1ccnn1CC(=O)N1CCN(c2ccc(C(F)(F)F)c3c2CN(c2cnc(C4CC4)nc2)CC3)C[C@H]1C` [Example 49, 1-{(R)-4-[2-(2-Cyclopropyl-pyrimidin-5-yl)-5-trifluoromethyl-1,2,3,4-tetrahydro-isoquinolin-8-yl]-2-methyl-piperazin-1-yl}-2-(5-methyl-pyrazol-1-yl)-ethanone], the IC50 was 3.56 nM.

Turning to `Cc1nc(C)n(CC(=O)N2CCN(c3ccc(C(F)(F)F)c4c3CN(c3cnc(N(C)C)nc3)CC4)C[C@H]2C)n1` [Example 50, 1-{(R)-4-[2-(2-Dimethylamino-pyrimidin-5-yl)-5-trifluoromethyl-1,2,3,4-tetrahydro-isoquinolin-8-yl]-2-methyl-piperazin-1-yl}-2-(3,5-dimethyl-[1,2,4]triazol-1-yl)-ethanone], the IC50 is 2.26 nM.

Broadly, the IC50 is the concentration that gives 50% inhibition.

The values above are taken from patent publication US9951063B2, “8-(piperazin-1-yl)-1,2,3,4-tetrahydro-isoquinoline derivatives” (IDORSIA PHARMACEUTICALS LTD, priority 2014, dated 2018).
